Data on 33 compounds can be found in ChEMBL document CHEMBL1932945, “One-pot regioselective synthesis of tetrahydroindazolones and evaluation of their antiproliferative and Src kinase inhibitory activities” (Bioorg Med Chem Lett, 2012).

Activity calls are given as the source filed them. No cut-off for these calls is given here.

Test [1] has as its system SK-OV-3. Nature of the test: Antiproliferative activity against human SKOV3 cells overexpressing c-Src at 50 uM after 72 hrs by Cell titer assay. The class given is functional. As to conditions: for inhibition at 50 µM: SK-OV-3, 72 h.
Test [2] has as its target Proto-oncogene tyrosine-protein kinase Src (Homo sapiens, UniProt P12931). Kind of test: Inhibition of His6-tagged c-Src kinase domain using AEEEIYGEFEAKKKK as substrate pre-incubated for 10 mins before substrate addition measured after 30 mins by Transcreener ADP2 FI Assay.
Test [3] has as its system HT-29. Nature of the test: Antiproliferative activity against human HT-29 cells overexpressing c-Src at 50 uM after 72 hrs by Cell titer assay. The class given is functional. The note with it: for inhibition at 50 µM: HT-29, 72 h.

Chain of Proto-oncogene tyrosine-protein kinase Src (P12931 2-536 limits assumed): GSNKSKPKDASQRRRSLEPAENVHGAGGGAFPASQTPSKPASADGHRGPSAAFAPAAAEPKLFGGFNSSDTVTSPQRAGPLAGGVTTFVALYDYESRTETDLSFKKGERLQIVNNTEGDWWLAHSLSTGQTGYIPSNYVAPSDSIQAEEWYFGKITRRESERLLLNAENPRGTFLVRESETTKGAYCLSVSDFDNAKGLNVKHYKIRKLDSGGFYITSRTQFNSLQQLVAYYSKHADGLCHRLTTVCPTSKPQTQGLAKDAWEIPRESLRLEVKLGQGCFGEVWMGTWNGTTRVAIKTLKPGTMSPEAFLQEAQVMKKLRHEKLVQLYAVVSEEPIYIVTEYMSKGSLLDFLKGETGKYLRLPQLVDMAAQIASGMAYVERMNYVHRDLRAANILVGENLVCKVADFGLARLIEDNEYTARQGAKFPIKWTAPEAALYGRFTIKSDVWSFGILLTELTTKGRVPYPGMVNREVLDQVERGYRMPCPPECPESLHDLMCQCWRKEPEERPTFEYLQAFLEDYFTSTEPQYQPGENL

Take `CC1(C)CC(=O)c2c(nn(-c3ccc([N+](=O)[O-])cc3)c2-c2ccc(Cl)c(Cl)c2)C1`: the inhibition result in test [1] and in test [3] was “Active” throughout. The IC50 (usually the concentration at which inhibition is half-maximal) in test [2] was over 150 µM.

As to `COc1ccc(-n2nc3c(c2-c2ccc(C(C)(C)C)cc2)C(=O)CC(C)(C)C3)cc1`, the inhibition entry in test [1] and in test [3] was “Active” each time. Also, the half-maximal inhibitory concentration (IC50) in test [2] is 35.1 µM.

For `COc1cccc(-n2nc3c(c2-c2ccc(C)c(Cl)c2)C(=O)CCC3)c1`, the inhibition entry in test [1] and in test [3] was “Active” each time. Moreover, in test [2], the IC50 is 82.7 µM.

On to `Cc1ccc(-c2c3c(nn2-c2ccc[nH]2)CC(C)(C)CC3=O)cc1Cl`, for which the inhibition entry in test [1] and in test [3] was “Active” each time. Also, the IC50 in test [2] was over 150 µM.

Take `COc1cccc2c1C(=O)c1c(O)c3c(c(O)c1C2=O)C[C@@](O)(C(=O)CO)C[C@@H]3O[C@H]1C[C@H](N)[C@H](O)[C@H](C)O1`: the inhibition entry in test [1] and in test [3] was “Active” each time.

Turning to `O=C1CCCc2nn(-c3ccccc3F)c(-c3ccc(Cl)c(Cl)c3)c21`, the inhibition result in test [1] and in test [3] was “Active” each time. The same compound displayed an IC50 in test [2] of over 150 µM.

As to `COc1ccc(-n2nc3c(c2-c2ccc(Cl)c(Cl)c2)C(=O)CC(C)(C)C3)cc1O`, the inhibition result in test [1] and in test [3] was “Active” in each case. This compound also had an IC50 in test [2] of over 150 µM.

Consider `Cc1ccc(-c2c3c(nn2-c2ccncc2)CC(C)(C)CC3=O)cc1Cl`, for which, in test [1], the inhibition (usually how much of the control response was suppressed) is “Active”. In test [2], this compound came in with an IC50 of 74.3 µM. The same compound came in with an inhibition at 50 µM in test [3] of 65%.

Regarding `O=C1CCCc2nn(-c3cccc(Cl)c3)c(C3CCCCC3)c21`, the inhibition entry in test [1] and in test [3] was “Active” each time. Also, in test [2], the 50% inhibitory concentration (IC50) stood at 58.4 µM.

Consider `O=C1CCCc2nn(-c3ccc(Cl)cc3)c(-c3ccc(Cl)c(Cl)c3)c21`, for which the inhibition entry in test [1] and in test [3] was “Active” throughout. Besides, the half-maximal inhibitory concentration (IC50) in test [2] was determined as 81 µM.

Regarding `CC1(C)CC(=O)c2c(nn(-c3cccs3)c2-c2ccc(Cl)c(Cl)c2)C1`, the inhibition entry in test [1] and in test [3] was “Active” in each case. The concentration for half-maximal inhibition (IC50) in test [2] is over 150 µM.

In the case of `Cc1ccc(-n2nc3c(c2C2CCCCC2)C(=O)CCC3)cc1`, the inhibition result in test [1] and in test [3] was “Active” in each case. The compound further showed a concentration for half-maximal inhibition (IC50) in test [2] of 57.7 µM.

As to `O=C1CCCc2nn(-c3cccs3)c(-c3ccc(Cl)c(Cl)c3)c21`, the inhibition at 50 µM in test [1] came out at 58%; in test [3], 62%. In addition, the IC50 in test [2] was over 150 µM.

`Cc1ccc(-n2nc3c(c2-c2ccc(Cl)c(Cl)c2)C(=O)CC(C)(C)C3)cc1`: the inhibition entry in test [1] and in test [3] was “Active” each time. The IC50 in test [2] is over 150 µM.

With `CC1(C)CC(=O)c2c(nn(-c3cccs3)c2C2CCCCC2)C1`, the inhibition at 50 µM in test [1] was found to be 49%; in test [3], 48%. Also, the half-inhibitory concentration (IC50) in test [2] was determined as 77.3 µM.

`CC1(C)CC(=O)c2c(nn(-c3ccccc3)c2-c2ccc(Cl)c(Cl)c2)C1`: the inhibition entry in test [1] and in test [3] was “Active” each time. Further, the IC50 in test [2] amounted to 62.1 µM.

For the compound `Cc1ccc(-c2c3c(nn2-c2ccc(Cl)cc2)CC(C)(C)CC3=O)cc1Cl`, the inhibition entry in test [1] and in test [3] was “Active” in each case. The compound also displayed an IC50 in test [2] of 132 µM.

On to `CC1(C)OC(=O)c2c(nn(-c3ccc(Cl)cc3)c2C2CCCCC2)O1`, for which the inhibition entry in test [1] and in test [3] was “Active” each time. In addition, the IC50 in test [2] is over 150 µM.

For `CC1(C)OC(=O)c2c(nn(-c3ccc(Cl)cc3)c2-c2ccc(C(C)(C)C)cc2)O1`, the inhibition entry in test [1] and in test [3] was “Active” in each case. This compound had a half-maximal inhibitory concentration (IC50) in test [2] of over 150 µM.

As to `Cc1ccc(-n2nc3c(c2-c2ccc(C(C)(C)C)cc2)C(=O)CC(C)(C)C3)cc1`, the inhibition entry in test [1] and in test [3] was “Active” each time. Also, the half-inhibitory concentration (IC50) in test [2] is over 150 µM.

In the case of `CC1(C)CC(=O)c2c(nn(-c3ccc[nH]3)c2-c2ccc(Cl)c(Cl)c2)C1`, the inhibition result in test [1] and in test [3] was “Active” each time. Also, the half-inhibitory concentration (IC50) in test [2] was over 150 µM.

With `O=C1CCCc2nn(-c3ccccc3)c(-c3ccc(Cl)c(Cl)c3)c21`, the inhibition result in test [1] is “Active”. The compound further came in with an IC50 in test [2] of 65.8 µM. The inhibition at 50 µM in test [3] was determined as 65%.

Take `CC1(C)CC(=O)c2c(nn(-c3ccc(O)cc3)c2-c2ccc(Cl)c(Cl)c2)C1`: the inhibition entry in test [1] and in test [3] was “Active” in each case. This compound also gave an IC50 in test [2] of 66.6 µM.

Regarding `COc1ccc(-n2nc3c(c2-c2ccc(Cl)c(Cl)c2)C(=O)CC(C)(C)C3)cc1`, the inhibition result in test [1] and in test [3] was “Active” each time. Moreover, in test [2], the IC50 worked out at 94.1 µM.

In the case of `COc1ccc(-n2nc3c(c2-c2ccc(Cl)c(Cl)c2)C(=O)CCC3)cc1O`, the inhibition entry in test [1] and in test [3] was “Active” in each case. The concentration for half-maximal inhibition (IC50) in test [2] is over 150 µM.

Consider `CC1(C)CC(=O)c2c(nn(-c3ccc(Cl)c(Cl)c3)c2-c2ccc(Cl)cc2)C1`, for which the inhibition result in test [1] and in test [3] was “Active” throughout. In test [2], this compound came in with a 50% inhibitory concentration (IC50) of 86 µM.

With `COc1ccc(-n2nc3c(c2-c2ccc(Cl)c(Cl)c2)C(=O)CCC3)cc1`, the inhibition entry in test [1] and in test [3] was “Active” in each case. Moreover, in test [2], the half-inhibitory concentration (IC50) is over 150 µM.

For `O=C1CCCc2nn(-c3ccc([N+](=O)[O-])cc3)c(-c3ccc(Cl)c(Cl)c3)c21`, the inhibition result in test [1] and in test [3] was “Active” throughout. In test [2], the IC50 was over 150 µM.

Regarding `CC1(C)CC(=O)c2c(nn(-c3ccc([N+](=O)[O-])cc3)c2C2CCCCC2)C1`, the inhibition entry in test [1] and in test [3] was “Active” throughout. Further, the 50% inhibitory concentration (IC50) in test [2] was over 150 µM.

As to `Cc1ccc(-n2nc3c(c2-c2ccc(Cl)c(Cl)c2)C(=O)CCC3)cc1`, the inhibition at 50 µM in test [1] worked out at 49%; in test [3], 48%. The half-maximal inhibitory concentration (IC50) in test [2] was over 150 µM.

`CC1(C)CC(=O)c2c(nn(-c3ccc(Cl)cc3)c2-c2ccc(C(C)(C)C)cc2)C1`: the inhibition result in test [1] and in test [3] was “Active” in each case. Further, in test [2], the half-inhibitory concentration (IC50) was over 150 µM.

In the case of `COc1ccc(-n2nc3c(c2-c2ccc(C(C)(C)C)cc2)C(=O)CC(C)(C)C3)cc1OC`, the inhibition result in test [1] was “Active”. Also, the IC50 in test [2] is over 150 µM. At 50 µM the inhibition in test [3] was 65%.

For `O=C1CCCc2nn(-c3ccc(O)cc3)c(-c3ccc(Cl)c(Cl)c3)c21`, the inhibition entry in test [1] and in test [3] was “Active” each time. The compound also came in with a 50% inhibitory concentration (IC50) in test [2] of over 150 µM.
